# Measurements reported in patent US8603527B2, “Pharmaceutical formulations of a substituted diaminopurine” (Signal Pharmaceuticals, LLC, priority 2010, dated 2013).
# Experiment: Pharmacokinetics (plasma and urine) of ascending multiple oral doses in healthy volunteers
# Type: in vivo, human
# Set-up: Cmax: unit: ng/mL
# Details: for AUC(0-∞) / Cmax / Ctrough / RA (ratio of accumulation) / t1/2 / Tmax: Day 14 (N = 8); for AUC(0-∞) / Cmax / Ctrough / RA (ratio of accumulation) / t1/2 / AUC(0-τ): geometric mean; for Tmax: median; for AUC(0-τ): Day 14, τ = 24 hours (N = 8)
# Description: Subjects: Forty healthy male and female subjects between the ages of 20 and 50 were enrolled in the study. All subjects were in good health as determined by a medical history, physical examination, 12-lead ECG, serum biochemistry, hematology, urinalysis and virology. Subjects were not permitted to take any prescribed medication within 30 days or non-prescribed medication within 7 days of the first dose administration.
# Study Design: This study was a randomized, double-blind, placebo-controlled, ascending-dose trial to evaluate the safety, tolerability and pharmacokinetics (PK) of multiple oral doses of Compound I. Subjects were enrolled into 1 of the 4 cohorts, 10 subjects per cohort (active:placebo=8:2). Subjects received a multiple oral dose of 25, 50, 100, or 200 mg unformulated Compound I in a capsule, or matching placebo, once daily (QD) for 14 days.
# Assessments: Safety and tolerability were assessed by adverse event (AE) monitoring, clinical laboratory testing, vital sign measurement, 12-lead ECG measurement, concomitant medication assessment, and physical examination. Blood and urine samples were collected to assess the PK profile of Compound I and the S-cis isomer of Compound I. Blood samples (˜5 mL) for plasma PK analysis were collected in K2-EDTA vacutainer tubes to yield approximately 2 mL of plasma at each of the following time points: (i) Day 1: before dosing, and 0.25, 0.5, 1, 1.5, 2, 2.5, 3, 4, 6, 8, 10, 12, 16, and 24 hours after dosing; (ii) Day 3 to Day 9: before dosing; (iii) Day 10: before dosing, and 0.25, 0.5, 1, 1.5, 2, 2.5, 3, 4, 6, 8, 10, 12, and 16 hours after dosing; (iv) Day 11 to Day 13: before dosing; (v) Day 14: before dosing, and 0.25, 0.5, 1, 1.5, 2, 2.5, 3, 4, 6, 8, 10, 12, 16, 24, 48, 72, 96, 120, 144, and 168 hours after dosing. Urine samples for the PK analysis were collected as a single block at: (i) Day 1: before dosing (spot collection), 0 to 8, 8 to 16, and 16 to 24 hours after dosing; and (ii) Day 14: 0 to 8, 8 to 16, and 16 to 24 hours after dosing. Both plasma and urine concentrations of Compound I and its S-cis isomer were measured using validated liquid chromatography-tandem mass spectrometry (LC/MS/MS).
# Data Analysis: Safety data were summarized using descriptive statistics by treatment. PK parameters for Compound I and its S-cis isomer were calculated using non-compartmental analysis using WinNonlin (Version 5.0.1 or greater; Pharsight Corporation, Mountain View, Calif.). Dose proportionality and dose independence were evaluated by visual inspection. Intra-subject variability was assessed using an ANOVA model using data from Days 10 and 14.
# [1] = S-cis isomer in plasma after Compound I 25 mg QD
# [2] = S-cis isomer in plasma after Compound I 50 mg QD
# [3] = S-cis isomer in plasma after Compound I 100 mg QD
# [4] = S-cis isomer in plasma after Compound I 200 mg QD
compound,measurement,setting,value
OC1CCC(Nc2ncc3nc(Nc4c(F)cc(F)cc4F)n(C4CCOC4)c3n2)CC1 (stereo not drawn) [S-cis isomer of Compound I],AUC(0-∞),[1],180.14 ng·h/mL
same,Cmax,[1],5.43 ng/mL
same,Ctrough,[1],2.33 ng/mL
same,RA (ratio of accumulation),[1],2.02
same,t1/2,[1],28.82 h
same,Tmax,[1],2.5 h
same,AUC(0-τ),[1],78.40 ng·h/mL
same,AUC(0-∞),[2],365.88 ng·h/mL
same,Cmax,[2],11.61 ng/mL
same,Ctrough,[2],4.93 ng/mL
same,RA (ratio of accumulation),[2],2.28
same,t1/2,[2],25.39 h
same,Tmax,[2],3.0 h
same,AUC(0-τ),[2],177.01 ng·h/mL
same,AUC(0-∞),[3],541.06 ng·h/mL
same,Cmax,[3],14.87 ng/mL
same,Ctrough,[3],7.14 ng/mL
same,RA (ratio of accumulation),[3],1.88
same,t1/2,[3],28.17 h
same,Tmax,[3],2.5 h
same,AUC(0-τ),[3],237.26 ng·h/mL
same,AUC(0-∞),[4],804.07 ng·h/mL
same,Cmax,[4],27.69 ng/mL
same,Ctrough,[4],10.90 ng/mL
same,RA (ratio of accumulation),[4],1.50
same,t1/2,[4],23.93 h
same,Tmax,[4],2.5 h
same,AUC(0-τ),[4],404.33 ng·h/mL
same,systemic exposure relative to that of Compound I,after Compound I QD dosing,about 2%
